Experimental data published in patent publication US20060069132A1, “Azolecarboxamide herbicides” (priority 2004, published 2006).

Key:
Surinam grass = assay: Test B pre-/postemergence herbicide test; format: in vivo, Urochloa decumbens; conditions: for Plant response rating, Surinam Grass: preemergence; for Surinam Grass plant response rating: postemergence, visual rating, scale 0 (no effect) to 100 (complete control)
Outline: (§1)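 Seeds were planted and treated preemergence with compounds formulated in a non-phytotoxic solvent mixture containing surfactant, while plants at the 1- to 4-leaf stage (2 to 18 cm) received postemergence sprays. Flooded paddy plants were grown to the 2-leaf stage. After 13 to 15 days in a greenhouse, injury was visually rated 0–100 against untreated controls.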

pigweed = assay: Test B pre-/postemergence herbicide test; format: in vivo, Amaranthus retroflexus; conditions: for Plant response rating, Pigweed: preemergence; for Pigweed plant response rating: postemergence, visual rating, scale 0 (no effect) to 100 (complete control)
Outline: as §1

wild oat = assay: Test B postemergence herbicide test; format: in vivo, Avena fatua; conditions: postemergence, visual rating, scale 0 (no effect) to 100 (complete control)
Outline: (§2)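 Each value is a visual 0–100 response rating taken against controls 13 to 15 days after treatment in the greenhouse. Plants received formulated chemical postemergence at the 1- to 4-leaf stage or, in flooded paddy, at the 2-leaf stage.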

[1] = tested on: small flower umbrella sedge; assay: Test B flooded paddy test; format: in vivo, Cyperus difformis; conditions: 1000 g ai/ha, visual rating, scale 0 to 100 (0 no effect, 100 complete control), 13 to 15 days
Outline: (§3)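 Postemergence plants were sprayed with formulated test chemicals at 2 to 18 cm height (1- to 4-leaf stage); paddy species were grown to the 2-leaf stage. After 13 to 15 days in a greenhouse, injury was rated visually against untreated controls on a 0–100 scale (0 = no effect, 100 = complete control).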

morningglory [2] = assay: Test B pre-/postemergence herbicide test; format: in vivo, Ipomoea coccinea; conditions: for Plant response rating, Morningglory: preemergence; for Morningglory plant response rating: postemergence, visual rating, scale 0 (no effect) to 100 (complete control)
Outline: as §1

rice [3] = assay: Test B flooded paddy test; format: in vivo, Oryza sativa; conditions: 1000 g ai/ha, visual rating, scale 0 to 100 (0 no effect, 100 complete control), 13 to 15 days
Outline: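 Visual ratings, 0 (no effect) to 100 (complete control), made versus controls after 13–15 d greenhouse. Paddy plants treated at 2-leaf stage; postemergence plants at 1- to 4-leaf stage, 2–18 cm tall.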

barnyardgrass [4] = assay: Test B flooded paddy test; format: in vivo, Echinochloa crus-galli; conditions: 1000 g ai/ha, visual rating, scale 0 to 100 (0 no effect, 100 complete control), 13 to 15 days
Outline: as §3

giant foxtail [5] = assay: Test A pre-/postemergence herbicide test; format: in vivo, Setaria faberi
Outline: (§4)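 Seeds sown in sandy loam received a preemergence directed soil spray of compound in non-phytotoxic solvent with surfactant; postemergence plants (2–10 cm, one- to two-leaf stage) were sprayed to runoff at the same time. After ~10 days in greenhouse, injury was rated visually versus untreated controls (0 = no effect, 100 = complete control).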

wheat = assay: Test B postemergence herbicide test; format: in vivo, Triticum aestivum; design: key to Wheat plant response rating: 0 = no effect, 100 = complete control; conditions: postemergence, visual rating, scale 0 (no effect) to 100 (complete control)
Outline: as §2

velvetleaf [6] = assay: Test A pre-/postemergence herbicide test; format: in vivo, Abutilon theophrasti
Outline: as §4

velvetleaf [7] = assay: Test B pre-/postemergence herbicide test; format: in vivo, Abutilon theophrasti; conditions: for Plant response rating, Velvetleaf: preemergence; for Velvetleaf plant response rating: postemergence, visual rating, scale 0 (no effect) to 100 (complete control)
Outline: as §1

giant foxtail [8] = assay: Test B pre-/postemergence herbicide test; format: in vivo, Setaria faberi; conditions: for Plant response rating, Foxtail, Giant: preemergence; for Foxtail, Giant plant response rating: postemergence, visual rating, scale 0 (no effect) to 100 (complete control)
Outline: as §1

large crabgrass [9] = assay: Test A pre-/postemergence herbicide test; format: in vivo, Digitaria sanguinalis
Outline: as §4

redroot pigweed = assay: Test A pre-/postemergence herbicide test; format: in vivo, Amaranthus retroflexus
Outline: as §4

lambsquarters = assay: Test B pre-/postemergence herbicide test; format: in vivo, Chenopodium album; conditions: for Plant response rating, Lambsquarters: preemergence; for Lambsquarters plant response rating: postemergence, visual rating, scale 0 (no effect) to 100 (complete control)
Outline: as §1

corn = assay: Test B pre-/postemergence herbicide test; format: in vivo, Zea mays; conditions: for Plant response rating, Corn: preemergence; for Corn plant response rating: postemergence, visual rating, scale 0 (no effect) to 100 (complete control)
Outline: as §1

barnyardgrass [10] = assay: Test A pre-/postemergence herbicide test; format: in vivo, Echinochloa crus-galli
Outline: as §4

ducksalad = assay: Test B flooded paddy test; format: in vivo, Heteranthera limosa; conditions: 1000 g ai/ha, visual rating, scale 0 to 100 (0 no effect, 100 complete control), 13 to 15 days
Outline: as §3

morningglory [11] = assay: Test A pre-/postemergence herbicide test; format: in vivo, Ipomoea spp.
Outline: as §4

barnyardgrass [12] = assay: Test B pre-/postemergence herbicide test; format: in vivo, Echinochloa crus-galli; conditions: for Plant response rating, Barnyardgrass: preemergence; for Barnyardgrass plant response rating: postemergence, visual rating, scale 0 (no effect) to 100 (complete control)
Outline: as §1

cocklebur = assay: Test B pre-/postemergence herbicide test; format: in vivo, Xanthium strumarium; conditions: for Plant response rating, Cocklebur: preemergence; for Cocklebur plant response rating: postemergence, visual rating, scale 0 (no effect) to 100 (complete control)
Outline: as §1

large crabgrass [13] = assay: Test B pre-/postemergence herbicide test; format: in vivo, Digitaria sanguinalis; conditions: for Plant response rating, Crabgrass, Large: preemergence; for Crabgrass, Large plant response rating: postemergence, visual rating, scale 0 (no effect) to 100 (complete control)
Outline: as §1

rice [14] = assay: Test B pre-/postemergence herbicide test; format: in vivo, Oryza sativa; conditions: preemergence, 125 g ai/ha; 0 to 100 scale, 0 is no effect, 100 is complete control
Outline: as §1

blackgrass = assay: Test B postemergence herbicide test; format: in vivo, Alopecurus myosuroides; conditions: postemergence, visual rating, scale 0 (no effect) to 100 (complete control)
Outline: as §3

[15] = 500 g ai/ha, visual rating 0-100, 0 no effect, 100 complete control
[16] = 125 g ai/ha, 0 to 100 scale, 0 is no effect, 100 is complete control
[17] = Postemergence, 500 g ai/ha, 0 to 100 scale, 0 no effect, 100 complete control
[18] = Postemergence, 2000 g ai/ha, 0 to 100 scale, 0 no effect, 100 complete control
[19] = Preemergence, 500 g ai/ha, visual rating, 0 to 100 scale (0 no effect, 100 complete control)
[20] = Preemergence, 2000 g ai/ha, visual rating, 0 to 100 scale (0 no effect, 100 complete control)
[21] = preemergence, 500 g ai/ha, visual injury, 0 to 100 scale (0 no effect, 100 complete control)

## CC(=O)c1cc(NC(=O)c2cc(C(C)(C)C)nn2C)ccc1F [Compound 123]
Surinam grass; [15]
  Plant response rating, Surinam Grass: 0
Surinam grass; 125 g ai/ha
  Surinam Grass plant response rating: 0
Surinam grass; 500 g ai/ha
  Surinam Grass plant response rating: 0
Surinam grass; [16]
  Plant response rating, Surinam Grass: 0
pigweed; [15]
  Plant response rating, Pigweed: 0
pigweed; 125 g ai/ha
  Pigweed plant response rating: 0
pigweed; 500 g ai/ha
  Pigweed plant response rating: 0
pigweed; [16]
  Plant response rating, Pigweed: 0
Wild oat; 125 g ai/ha
  Oat, Wild plant response rating: 0
Wild oat; 500 g ai/ha
  Oat, Wild plant response rating: 0
[1]
  Sedge, Umbrella plant response rating: 30
Morningglory [2]; [15]
  Plant response rating, Morningglory: 0
Morningglory [2]; 125 g ai/ha
  Morningglory plant response rating: 0
Morningglory [2]; 500 g ai/ha
  Morningglory plant response rating: 0
Morningglory [2]; [16]
  Plant response rating, Morningglory: 0
Rice [3]
  Rice plant response rating: 0
Barnyardgrass [4]
  Barnyardgrass plant response rating: 0
Giant foxtail [5]; [17]
  Foxtail, Giant plant response rating: 0
Giant foxtail [5]; [18]
  Plant response rating, Foxtail, Giant: 10
Giant foxtail [5]; [19]
  Foxtail, Giant plant response rating: 0
Giant foxtail [5]; [20]
  Foxtail, Giant plant response rating: 0
wheat; 125 g ai/ha
  Wheat plant response rating: 0
wheat; 500 g ai/ha
  Wheat plant response rating: 0
Velvetleaf [6]; [17]
  Velvetleaf plant response rating: 0
Velvetleaf [6]; [18]
  Plant response rating, Velvetleaf: 10
Velvetleaf [6]; [20]
  Velvetleaf plant response rating: 0
Velvetleaf [6]; [21]
  Velvetleaf plant response rating: 0
Velvetleaf [7]; [15]
  Plant response rating, Velvetleaf: 0
Velvetleaf [7]; 125 g ai/ha
  Velvetleaf plant response rating: 0
Velvetleaf [7]; 500 g ai/ha
  Velvetleaf plant response rating: 0
Velvetleaf [7]; [16]
  Plant response rating, Velvetleaf: 0
Giant foxtail [8]; [15]
  Plant response rating, Foxtail, Giant: 0
Giant foxtail [8]; 125 g ai/ha
  Foxtail, Giant plant response rating: 0
Giant foxtail [8]; 500 g ai/ha
  Foxtail, Giant plant response rating: 0
Giant foxtail [8]; [16]
  Plant response rating, Foxtail, Giant: 0
Large crabgrass [9]; [17]
  Crabgrass, Large plant response rating: 10
Large crabgrass [9]; [18]
  Plant response rating, Crabgrass, Large: 10
Large crabgrass [9]; [19]
  Crabgrass, Large plant response rating: 15
Large crabgrass [9]; [20]
  Crabgrass, Large plant response rating: 0
Redroot pigweed; [17]
  Pigweed plant response rating: 0
Redroot pigweed; [18]
  Plant response rating, Pigweed: 15
Redroot pigweed; [20]
  Pigweed plant response rating: 0
Redroot pigweed; [21]
  Pigweed plant response rating: 0
lambsquarters; [15]
  Plant response rating, Lambsquarters: 0
lambsquarters; 125 g ai/ha
  Lambsquarters plant response rating: 0
lambsquarters; 500 g ai/ha
  Lambsquarters plant response rating: 0
lambsquarters; [16]
  Plant response rating, Lambsquarters: 0
corn; [15]
  Plant response rating, Corn: 0
corn; 125 g ai/ha
  Corn plant response rating: 0
corn; 500 g ai/ha
  Corn plant response rating: 0
corn; [16]
  Plant response rating, Corn: 0
Barnyardgrass [10]; [17]
  Barnyardgrass plant response rating: 5
Barnyardgrass [10]; [18]
  Plant response rating, Barnyardgrass: 20
Barnyardgrass [10]; [19]
  Barnyardgrass plant response rating: 5
Barnyardgrass [10]; [20]
  Barnyardgrass plant response rating: 50
ducksalad
  Ducksalad plant response rating: 50
Morningglory [11]; [17]
  Morningglory plant response rating: 0
Morningglory [11]; [18]
  Plant response rating, Morningglory: 10
Morningglory [11]; [19]
  Morningglory plant response rating: 0
Morningglory [11]; [20]
  Morningglory plant response rating: 0
Barnyardgrass [12]; [15]
  Plant response rating, Barnyardgrass: 0
Barnyardgrass [12]; 125 g ai/ha
  Barnyardgrass plant response rating: 0
Barnyardgrass [12]; 500 g ai/ha
  Barnyardgrass plant response rating: 0
Barnyardgrass [12]; [16]
  Plant response rating, Barnyardgrass: 0
cocklebur; [15]
  Plant response rating, Cocklebur: 0
cocklebur; 125 g ai/ha
  Cocklebur plant response rating: 0
cocklebur; 500 g ai/ha
  Cocklebur plant response rating: 0
cocklebur; [16]
  Plant response rating, Cocklebur: 0
Large crabgrass [13]; [15]
  Plant response rating, Crabgrass, Large: 0
Large crabgrass [13]; 125 g ai/ha
  Crabgrass, Large plant response rating: 0
Large crabgrass [13]; 500 g ai/ha
  Crabgrass, Large plant response rating: 0
Large crabgrass [13]; [16]
  Plant response rating, Crabgrass, Large: 0
Rice [14]
  Plant response rating, Rice: 0
blackgrass; 125 g ai/ha
  Blackgrass plant response rating: 0
blackgrass; 500 g ai/ha
  Blackgrass plant response rating: 0
